According to patent US11191291B2, “Compositions for taste masking” (International Flavors & Fragrances Inc., priority 2016, dated 2021):

Assay: Sensory panel ranking of lingering aftertaste masking on a 0-5 scale (Example III)
Type: in vivo
Conditions: for Masking Effect: scale of 0-5, 0=no masking, 5=very strong masking; for Taste compared with the control: αG SWEET 0.14% solution, water used in control group, concentration series
Experimental: A solution of αG SWEET was prepared in water at a concentration of 0.14%. The Emblica officinalis fruit extract (prepared as above in Example I) containing the mucic acid 2-O-gallate (11.84%) and mucic acid lactone gallate (6.35%) mixture, individual fractions containing each of mucic acid 2-O-gallate, mucic acid lactone gallate, galloyl glucose (prepared in Example I) and mucic acid 3-O-gallate (Quality Phytochemicals, LLC, New Jersey, U.S.) were added to the αG SWEET solution, respectively, to achieve a series of concentrations ranging from about 50-80 ppm for the Emblica officinalis fruit extract; about 5-20 ppm for mucic acid 2-O-gallate; about 5-20 ppm for mucic acid 3-O-gallate; about 2-10 ppm for mucic acid lactone gallate; and about 10-20 ppm for galloyl glucose. Water was used in a control group. Samples were presented in a blind and pseudorandom order to a sensory panel. The lingering aftertaste-masking effect was evaluated by ranking the suppression of bitterness, metallic aftertaste and lingering sweetness on a scale of 0-5, where 0=no masking and 5=very strong masking.

[1] = 20 ppm in αG SWEET 0.14% solution

Molecule | Masking Effect [1] | Taste compared with the control | Masking Effect (10 ppm in αG SWEET 0.14% solution)
O=C(OC(C(O)C(=O)O)C(O)C(O)C(=O)O)c1cc(O)c(O)c(O)c1 (centres unmarked) [Mucic Acid 3-O-Gallate, mucic acid 3-O-gallate] | 1 | tasted considerably less bitter and the lingering metallic off-note was reduced | 
O=C(OC(C(=O)O)C(O)C(O)C(O)C(=O)O)c1cc(O)c(O)c(O)c1 (centres unmarked) [Mucic acid 2-O-gallate, mucic acid 2-O-gallate] | 1 | tasted considerably less bitter and the lingering metallic off-note was reduced | 
O=C(OC(C(=O)O)C1OC(=O)C(O)C1O)c1cc(O)c(O)c(O)c1 (centres unmarked) [Mucic acid lactone gallate, mucic acid lactone gallate] |  | tasted considerably less bitter and the lingering metallic off-note was reduced | 2
galloyl glucose [reference compound] | 0 | very low effect | 
